# Reference: ChEMBL document CHEMBL1201862, “PubChem BioAssay data set” (2004)
# Activity calls are given as the source filed them.
# Tests used:
# [1] = target: T1, Sentrin-specific protease 7 (Homo sapiens, UniProt Q9BQF6); format: functional;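 further: Luminescence-based dose-response confirmation of ultra-high-throughput screening hits, measuring inhibition of SENP7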
# T1 sequence (Q9BQF6 whole entry): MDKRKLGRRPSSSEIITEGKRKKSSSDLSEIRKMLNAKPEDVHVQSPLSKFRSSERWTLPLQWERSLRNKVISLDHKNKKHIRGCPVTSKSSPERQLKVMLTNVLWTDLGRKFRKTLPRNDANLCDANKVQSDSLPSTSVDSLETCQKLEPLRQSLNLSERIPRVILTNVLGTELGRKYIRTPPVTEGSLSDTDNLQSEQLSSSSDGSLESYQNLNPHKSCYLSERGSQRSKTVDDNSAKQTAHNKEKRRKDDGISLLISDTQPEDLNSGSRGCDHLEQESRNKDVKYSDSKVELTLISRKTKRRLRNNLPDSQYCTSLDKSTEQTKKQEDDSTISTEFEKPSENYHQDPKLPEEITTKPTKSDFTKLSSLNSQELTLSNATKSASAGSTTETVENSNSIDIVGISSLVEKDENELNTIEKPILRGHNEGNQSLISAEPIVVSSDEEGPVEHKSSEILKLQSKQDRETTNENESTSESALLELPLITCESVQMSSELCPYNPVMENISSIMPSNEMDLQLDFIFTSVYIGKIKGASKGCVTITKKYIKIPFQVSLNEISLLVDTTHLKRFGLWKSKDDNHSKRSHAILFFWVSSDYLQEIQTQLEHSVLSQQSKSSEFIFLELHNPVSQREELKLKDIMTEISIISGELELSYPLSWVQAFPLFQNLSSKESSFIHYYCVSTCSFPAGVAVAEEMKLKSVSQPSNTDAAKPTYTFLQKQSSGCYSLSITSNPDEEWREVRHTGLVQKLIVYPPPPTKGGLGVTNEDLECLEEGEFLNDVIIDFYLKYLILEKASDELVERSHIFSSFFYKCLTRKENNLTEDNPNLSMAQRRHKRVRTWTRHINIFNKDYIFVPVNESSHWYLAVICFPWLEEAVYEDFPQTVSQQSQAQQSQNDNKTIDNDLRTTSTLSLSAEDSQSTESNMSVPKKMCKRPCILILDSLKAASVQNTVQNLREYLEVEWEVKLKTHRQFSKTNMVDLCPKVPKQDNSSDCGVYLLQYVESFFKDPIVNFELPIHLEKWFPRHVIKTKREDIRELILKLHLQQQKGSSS
# cells [2] = settings: HEK293
# [3] = target: T2, Sentrin-specific protease 6 (Homo sapiens, UniProt Q9GZR1); format: functional;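 further: Luminescence-based dose-response confirmatory assay of SENP6 inhibition, following up an ultra-high-throughput screen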
# T2 sequence (Q9GZR1 whole entry): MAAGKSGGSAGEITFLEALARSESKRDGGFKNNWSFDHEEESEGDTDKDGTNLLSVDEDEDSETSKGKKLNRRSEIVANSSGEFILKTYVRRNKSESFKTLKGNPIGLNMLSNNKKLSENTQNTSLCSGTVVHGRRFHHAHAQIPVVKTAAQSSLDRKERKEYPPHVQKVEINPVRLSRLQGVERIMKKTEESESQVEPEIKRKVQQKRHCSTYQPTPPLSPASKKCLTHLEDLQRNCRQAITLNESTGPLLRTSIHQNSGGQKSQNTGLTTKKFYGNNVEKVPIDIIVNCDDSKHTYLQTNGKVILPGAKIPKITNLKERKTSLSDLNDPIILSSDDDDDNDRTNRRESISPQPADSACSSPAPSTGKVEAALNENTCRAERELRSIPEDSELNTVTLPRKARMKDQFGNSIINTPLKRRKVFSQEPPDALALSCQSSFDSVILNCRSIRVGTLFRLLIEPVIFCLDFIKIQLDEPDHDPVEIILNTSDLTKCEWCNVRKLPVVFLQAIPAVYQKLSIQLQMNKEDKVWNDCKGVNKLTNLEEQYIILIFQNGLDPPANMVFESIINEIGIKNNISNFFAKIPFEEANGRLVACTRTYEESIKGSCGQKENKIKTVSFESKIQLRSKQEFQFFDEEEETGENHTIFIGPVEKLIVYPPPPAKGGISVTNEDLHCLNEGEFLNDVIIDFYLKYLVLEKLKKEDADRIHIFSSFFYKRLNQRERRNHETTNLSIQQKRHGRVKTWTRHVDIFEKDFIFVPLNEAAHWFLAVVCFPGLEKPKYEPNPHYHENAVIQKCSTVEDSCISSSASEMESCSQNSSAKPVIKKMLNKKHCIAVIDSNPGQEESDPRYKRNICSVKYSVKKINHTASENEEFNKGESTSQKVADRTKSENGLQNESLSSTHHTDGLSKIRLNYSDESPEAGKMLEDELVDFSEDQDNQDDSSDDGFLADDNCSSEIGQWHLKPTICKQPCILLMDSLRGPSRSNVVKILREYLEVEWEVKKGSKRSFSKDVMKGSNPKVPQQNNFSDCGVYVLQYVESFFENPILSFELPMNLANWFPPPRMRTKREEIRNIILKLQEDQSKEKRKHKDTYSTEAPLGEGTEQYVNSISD
# [4] = target: T3, Sentrin-specific protease 8 (Homo sapiens, UniProt Q96LD8); format: functional;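 further: luminescence read-out of SENP8 inhibition, dose-response confirmation following an ultra-high-throughput screen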
# T3 sequence (Q96LD8 whole entry): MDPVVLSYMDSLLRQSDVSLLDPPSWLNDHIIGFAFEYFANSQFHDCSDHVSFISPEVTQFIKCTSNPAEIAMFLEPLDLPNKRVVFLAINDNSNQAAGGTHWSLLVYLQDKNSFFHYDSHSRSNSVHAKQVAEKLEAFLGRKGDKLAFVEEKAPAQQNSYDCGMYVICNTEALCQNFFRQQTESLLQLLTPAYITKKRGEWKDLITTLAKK
# Caspase-3 = target: T4, Caspase-3 (Homo sapiens, UniProt P42574); format: functional;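 further: Dose-response selectivity test against caspase-3 for candidate inhibitors of sentrin-specific proteases (SENPs)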
# T4 sequence (P42574 whole entry): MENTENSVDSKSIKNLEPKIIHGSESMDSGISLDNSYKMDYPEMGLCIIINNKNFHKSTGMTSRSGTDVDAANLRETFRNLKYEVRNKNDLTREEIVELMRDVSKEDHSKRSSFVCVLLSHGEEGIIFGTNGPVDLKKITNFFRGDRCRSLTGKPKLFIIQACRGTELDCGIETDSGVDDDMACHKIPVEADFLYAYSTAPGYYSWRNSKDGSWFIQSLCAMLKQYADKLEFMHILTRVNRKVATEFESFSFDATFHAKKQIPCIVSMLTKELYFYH
# [5] = target: T5, Oxysterols receptor LXR-beta (Homo sapiens, UniProt P55055); format: functional, cell-based;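 further: agonist activity at LXR measured by a cell-based luminescence readout across a dose range, run as a counterscreen for daf-12 agonists; HEK293 cells with Gal4-LXR fusion and GAL4-driven luciferase reporter; potency for activation of Gal4-LXR reporter so compounds are agonists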
# T5 sequence (P55055 whole entry): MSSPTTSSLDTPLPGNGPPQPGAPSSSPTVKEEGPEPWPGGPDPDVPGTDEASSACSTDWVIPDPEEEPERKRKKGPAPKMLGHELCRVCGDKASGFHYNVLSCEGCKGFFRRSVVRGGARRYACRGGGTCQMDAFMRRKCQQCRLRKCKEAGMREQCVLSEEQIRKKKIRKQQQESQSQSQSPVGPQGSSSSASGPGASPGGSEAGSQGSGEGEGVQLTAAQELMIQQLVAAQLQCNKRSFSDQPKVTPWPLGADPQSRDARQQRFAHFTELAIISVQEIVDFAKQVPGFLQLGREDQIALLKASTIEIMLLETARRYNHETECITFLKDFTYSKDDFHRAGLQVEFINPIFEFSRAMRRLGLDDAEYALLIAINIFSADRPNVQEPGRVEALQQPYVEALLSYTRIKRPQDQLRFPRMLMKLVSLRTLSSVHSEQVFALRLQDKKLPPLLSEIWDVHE
# H4 = assay: Luminescence Cell-Based Dose Response HTS to Identify Activators of 5'UTR Stem-Loop Driven Prion Protein mRNA Translation in H4 Neuroglioblastoma Cells. [Related pubchem assays: 1829 (Project Summary), 1814 (Primary HTS)]; format: functional; settings: Homo sapiens
# [6] = Luminescence Cell-Based Dose Response HTS to Identify Activators of Luciferase Translation or Activity in H4 […] Cells. [Related pubchem assays: 1829 (Project Summary), 1814 (Primary HTS)]; format: functional
# [7] = target: T6, Heat shock factor protein 1 (Mus musculus, UniProt P38532); assay: enhancement of HSF1-driven luciferase signal – cell-based, NIH3T3, luminescence, dose retest, confirmation (AID 435004); format: functional;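 further: stress induced by proteasome inhibitor MG132 added 30 min after compound; luciferase reporter driven by HSF1 response element in NIH3T3 cells; actives raise luminescence as potentiators of the MG132 stress response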
# T6 sequence (P38532 whole entry): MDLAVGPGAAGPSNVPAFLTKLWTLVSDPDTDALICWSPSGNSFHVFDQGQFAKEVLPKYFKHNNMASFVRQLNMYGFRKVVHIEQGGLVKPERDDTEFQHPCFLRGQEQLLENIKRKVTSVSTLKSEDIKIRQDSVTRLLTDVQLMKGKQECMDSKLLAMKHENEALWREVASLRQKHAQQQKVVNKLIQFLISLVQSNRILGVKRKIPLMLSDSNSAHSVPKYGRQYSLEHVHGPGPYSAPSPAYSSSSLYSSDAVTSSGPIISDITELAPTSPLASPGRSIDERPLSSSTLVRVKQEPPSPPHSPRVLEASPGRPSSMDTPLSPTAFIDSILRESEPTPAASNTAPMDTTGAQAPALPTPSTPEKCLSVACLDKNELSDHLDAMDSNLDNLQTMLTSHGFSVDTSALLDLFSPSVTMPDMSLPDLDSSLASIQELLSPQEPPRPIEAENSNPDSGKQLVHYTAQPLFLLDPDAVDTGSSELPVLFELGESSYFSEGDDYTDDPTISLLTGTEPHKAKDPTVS
# [8] = target: T7, High affinity choline transporter 1 (Homo sapiens, UniProt Q9GZV3); assay: human choline transporter blockers, potency – cell-based, 5-point CRC, membrane potential dye, dose response (AID 504840); format: functional
# T7 sequence (Q9GZV3 whole entry): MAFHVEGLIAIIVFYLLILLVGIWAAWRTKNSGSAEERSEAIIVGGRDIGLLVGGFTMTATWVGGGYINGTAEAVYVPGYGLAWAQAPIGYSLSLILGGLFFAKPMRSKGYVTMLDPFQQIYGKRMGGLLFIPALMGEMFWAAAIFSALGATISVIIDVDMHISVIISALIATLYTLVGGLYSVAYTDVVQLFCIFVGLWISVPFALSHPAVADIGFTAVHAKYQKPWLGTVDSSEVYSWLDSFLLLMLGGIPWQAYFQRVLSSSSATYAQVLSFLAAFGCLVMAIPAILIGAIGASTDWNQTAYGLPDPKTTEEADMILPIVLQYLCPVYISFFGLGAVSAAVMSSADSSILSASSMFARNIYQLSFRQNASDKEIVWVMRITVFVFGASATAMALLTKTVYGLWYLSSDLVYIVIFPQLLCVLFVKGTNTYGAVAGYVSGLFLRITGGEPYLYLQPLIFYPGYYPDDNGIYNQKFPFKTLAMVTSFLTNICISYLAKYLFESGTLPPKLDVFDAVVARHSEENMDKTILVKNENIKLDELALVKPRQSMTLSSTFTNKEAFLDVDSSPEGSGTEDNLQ
# cells [9] = settings: A549
compound,measurement,setting,value
CC(=O)c1sc(N/N=C\c2ccc(N(C)C)cc2)nc1C,IC50,[1],3.05 µM (active)
same,AC50,cells [2],> 52 µM (inactive)
same,IC50,[3],3.82 µM (active)
same,IC50,[4],4.08 µM (active)
same,IC50,Caspase-3,9.56 µM (active)
Cn1c(NC(=O)CCc2ccccc2)cc(=O)n(C)c1=O,EC50,[5],> 67.5 µM (inactive)
same,EC50,H4,9.93 µM (active)
same,EC50,[6],4.41 µM (inconclusive)
O=C(Nc1ccn(Cc2ccccc2)n1)c1n[nH]c([N+](=O)[O-])c1Cl,EC50,[5],> 67.5 µM (inactive)
same,EC50,[7],> 260 µM (inconclusive)
same,IC50,[8],4.37 µM (active)
O=C(Nc1ccc2c(c1)OCCO2)c1ccc(NC(=O)C2CCCO2)cc1 (configuration not stated),AC50,cells [9],> 52 µM (inactive)
